ChEMBL document CHEMBL5120948, “Ynamide Electrophile for the Profiling of Ligandable Carboxyl Residues in Live Cells and the Development of New Covalent Inhibitors” (J Med Chem, 2022)
Blank lines part the entries; values can stand above or below the molecule they belong to. Calls of active or inactive are those of the source. No cut-off for these calls is given here.

Experiments:
[1] = target: Aldehyde dehydrogenase, mitochondrial (Homo sapiens) (UniProt P05091); assay: Binding affinity to ALDH2 in human HepG2 cells at 100 uM incubated for 8 hrs by pull-down/Western blot analysis; format: cell-based
Sequence of Aldehyde dehydrogenase, mitochondrial (Homo sapiens) (P05091 whole entry): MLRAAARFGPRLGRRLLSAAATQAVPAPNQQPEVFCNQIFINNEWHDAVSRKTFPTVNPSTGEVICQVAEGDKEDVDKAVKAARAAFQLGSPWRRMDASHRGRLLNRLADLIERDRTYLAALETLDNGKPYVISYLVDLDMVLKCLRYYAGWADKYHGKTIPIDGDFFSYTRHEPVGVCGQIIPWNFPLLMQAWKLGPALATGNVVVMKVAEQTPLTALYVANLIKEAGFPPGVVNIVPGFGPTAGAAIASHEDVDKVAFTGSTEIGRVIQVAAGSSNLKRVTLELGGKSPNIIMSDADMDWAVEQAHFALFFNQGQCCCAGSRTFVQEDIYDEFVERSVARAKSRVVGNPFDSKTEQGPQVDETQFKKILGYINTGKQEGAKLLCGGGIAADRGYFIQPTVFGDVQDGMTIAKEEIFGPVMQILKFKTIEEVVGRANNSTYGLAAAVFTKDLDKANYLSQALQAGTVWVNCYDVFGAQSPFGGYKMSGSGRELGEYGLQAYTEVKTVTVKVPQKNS

[2] = target: Aldehyde dehydrogenase 1A1 (Homo sapiens) (UniProt P00352); assay: Binding affinity to ALDH1 in human HepG2 cells at 100 uM incubated for 8 hrs by pull-down/Western blot analysis; format: cell-based
Sequence of Aldehyde dehydrogenase 1A1 (Homo sapiens) (P00352 whole entry): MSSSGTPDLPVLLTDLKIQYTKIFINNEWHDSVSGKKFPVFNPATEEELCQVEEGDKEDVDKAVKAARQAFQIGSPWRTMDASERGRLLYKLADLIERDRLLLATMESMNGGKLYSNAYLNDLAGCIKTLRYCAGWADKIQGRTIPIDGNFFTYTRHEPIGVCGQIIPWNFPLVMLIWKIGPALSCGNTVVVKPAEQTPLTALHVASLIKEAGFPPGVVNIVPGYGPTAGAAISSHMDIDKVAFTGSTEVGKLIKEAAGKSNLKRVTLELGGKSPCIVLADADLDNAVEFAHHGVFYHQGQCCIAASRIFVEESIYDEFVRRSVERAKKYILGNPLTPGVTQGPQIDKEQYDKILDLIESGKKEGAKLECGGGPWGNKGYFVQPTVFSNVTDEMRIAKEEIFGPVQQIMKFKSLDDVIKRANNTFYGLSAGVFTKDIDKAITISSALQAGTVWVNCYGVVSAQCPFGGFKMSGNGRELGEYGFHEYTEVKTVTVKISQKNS

Albumin [3] = target: T1, Albumin (Bos taurus, UniProt P02769); assay: Binding affinity to bovine serum albumin assessed as increase in fluorescence intensity at 5 uM measured after 30 mins by TAMRA-N3 based In-gel fluorescence scanning analysis; settings: cattle, 0.5 h
T1 sequence (P02769 whole entry): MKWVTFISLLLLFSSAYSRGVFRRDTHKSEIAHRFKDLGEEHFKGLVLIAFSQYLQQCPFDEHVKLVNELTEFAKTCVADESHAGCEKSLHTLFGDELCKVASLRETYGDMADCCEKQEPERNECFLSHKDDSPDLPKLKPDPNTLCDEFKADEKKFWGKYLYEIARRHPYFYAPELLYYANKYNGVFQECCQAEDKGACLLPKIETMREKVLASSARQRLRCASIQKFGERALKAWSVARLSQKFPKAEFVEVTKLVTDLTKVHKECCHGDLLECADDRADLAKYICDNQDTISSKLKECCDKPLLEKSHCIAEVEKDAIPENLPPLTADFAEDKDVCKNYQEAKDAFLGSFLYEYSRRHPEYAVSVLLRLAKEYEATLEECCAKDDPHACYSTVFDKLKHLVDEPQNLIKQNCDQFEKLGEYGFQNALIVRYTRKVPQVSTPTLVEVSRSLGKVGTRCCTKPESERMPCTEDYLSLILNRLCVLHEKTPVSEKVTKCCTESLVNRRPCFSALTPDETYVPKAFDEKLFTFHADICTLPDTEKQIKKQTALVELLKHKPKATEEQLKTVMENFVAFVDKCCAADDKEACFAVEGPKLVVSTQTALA

[4] = target: Delta(3,5)-Delta(2,4)-dienoyl-CoA isomerase, mitochondrial (Homo sapiens) (UniProt Q13011); assay: Binding affinity to ECH1 in human HepG2 cells at 100 uM incubated for 8 hrs by pull-down/Western blot analysis; format: cell-based
Sequence of Delta(3,5)-Delta(2,4)-dienoyl-CoA isomerase, mitochondrial (Homo sapiens) (Q13011 whole entry): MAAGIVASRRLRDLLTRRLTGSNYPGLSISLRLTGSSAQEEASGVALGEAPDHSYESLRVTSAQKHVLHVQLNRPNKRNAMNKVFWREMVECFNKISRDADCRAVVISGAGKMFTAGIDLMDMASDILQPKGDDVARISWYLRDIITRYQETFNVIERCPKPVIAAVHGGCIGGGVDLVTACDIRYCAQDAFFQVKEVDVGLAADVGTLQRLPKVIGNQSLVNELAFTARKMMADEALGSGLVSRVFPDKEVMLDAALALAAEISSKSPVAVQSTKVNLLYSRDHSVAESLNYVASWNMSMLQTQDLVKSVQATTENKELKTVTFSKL

Catalase (Homo sapiens) = Catalase (Homo sapiens) (UniProt P04040); assay: Binding affinity to catalase (unknown origin) measured after 30 mins by TAMRA-N3 based In-gel fluorescence scanning analysis; settings: dose 5-50 µM
Sequence of Catalase (Homo sapiens) (P04040 whole entry): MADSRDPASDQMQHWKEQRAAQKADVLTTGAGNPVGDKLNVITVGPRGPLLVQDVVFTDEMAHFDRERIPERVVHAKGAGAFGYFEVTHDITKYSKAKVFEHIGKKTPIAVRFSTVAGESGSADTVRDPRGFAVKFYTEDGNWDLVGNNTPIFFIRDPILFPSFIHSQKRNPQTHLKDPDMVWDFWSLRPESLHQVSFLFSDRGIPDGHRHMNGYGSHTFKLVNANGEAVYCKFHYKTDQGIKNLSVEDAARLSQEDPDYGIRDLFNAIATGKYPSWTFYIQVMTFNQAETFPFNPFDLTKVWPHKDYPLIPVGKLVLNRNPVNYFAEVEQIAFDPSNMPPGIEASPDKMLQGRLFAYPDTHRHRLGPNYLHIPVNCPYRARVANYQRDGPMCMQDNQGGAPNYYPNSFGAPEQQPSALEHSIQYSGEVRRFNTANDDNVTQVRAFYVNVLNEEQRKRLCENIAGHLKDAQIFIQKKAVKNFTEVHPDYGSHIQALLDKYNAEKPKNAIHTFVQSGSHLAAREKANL

[5] = target: Dual specificity mitogen-activated protein kinase kinase 2 (Homo sapiens) (UniProt P36507); assay: Stabilization of MEK2 in human HepG2 cells assessed as increase in thermal stability at 50 uM incubated for 3 hrs by cellular thermal shift assay; format: cell-based
Sequence of Dual specificity mitogen-activated protein kinase kinase 2 (Homo sapiens) (P36507 whole entry): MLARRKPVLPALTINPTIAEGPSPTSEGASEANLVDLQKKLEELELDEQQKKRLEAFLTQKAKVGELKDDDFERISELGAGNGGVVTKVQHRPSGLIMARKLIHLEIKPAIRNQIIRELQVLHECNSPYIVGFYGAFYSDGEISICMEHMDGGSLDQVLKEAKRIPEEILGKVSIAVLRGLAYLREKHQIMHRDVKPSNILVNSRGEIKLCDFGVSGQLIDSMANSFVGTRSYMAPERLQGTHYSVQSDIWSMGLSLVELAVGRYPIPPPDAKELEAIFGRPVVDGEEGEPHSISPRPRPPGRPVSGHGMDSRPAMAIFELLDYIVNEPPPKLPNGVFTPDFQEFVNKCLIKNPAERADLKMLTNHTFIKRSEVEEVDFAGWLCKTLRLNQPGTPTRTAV

Albumin [6] = target: T1, Albumin; assay: Binding affinity to bovine serum albumin assessed as increase in fluorescence intensity at 10 uM measured after 4 hrs in presence of N,4-Dimethyl-N-(phenylethynyl)benzenesulfonamide by TAMRA-N3 based In-gel fluorescence scanning analysis; settings: cattle
[7] = target: Dual specificity mitogen-activated protein kinase kinase 2 (Homo sapiens) (UniProt P36507); assay: Binding affinity to MEK2 in human HepG2 cells at 100 uM incubated for 8 hrs by pull-down/Western blot analysis; format: cell-based
Albumin [8] = target: T1, Albumin; assay: Binding affinity to bovine serum albumin assessed as increase in fluorescence intensity at 10 uM measured after 4 hrs by TAMRA-N3 based In-gel fluorescence scanning analysis; settings: cattle
[9] = Stability of the compound in DMSO/H2O solution measured after 7 days by 1H-NMR analysis; format: physicochemical; settings: 168 h; time 7 day
HepG2 [10] = assay: Inhibition of ERK phosphorylation in human HepG2 cells at 5 to 40 uM by Western blot analysis; format: cell-based; settings: dose 5-40 µM
[11] = tested on: GTPase KRas (Homo sapiens), P01116 [G12D]; assay: Binding affinity to KRAS G12D mutant (unknown origin) measured after 30 mins by TAMRA-N3 based In-gel fluorescence scanning analysis; settings: dose 5-50 µM
Sequence of GTPase KRas (Homo sapiens), P01116 [G12D] (P01116 whole entry G12D, looked up): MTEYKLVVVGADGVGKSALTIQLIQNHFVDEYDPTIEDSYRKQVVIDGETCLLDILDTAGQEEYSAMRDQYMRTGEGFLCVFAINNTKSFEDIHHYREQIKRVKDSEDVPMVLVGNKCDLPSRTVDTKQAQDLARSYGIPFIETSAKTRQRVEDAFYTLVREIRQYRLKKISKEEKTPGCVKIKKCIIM

HepG2 [12] = assay: Binding affinity to G3P in human HepG2 cells at 100 uM incubated for 8 hrs by pull-down/Western blot analysis; format: cell-based
[13] = Binding affinity to glutamic acid in aqueous solution measured within 3 hrs by HPLC analysis
Homo sapiens = organism: Homo sapiens; assay: Binding affinity to beta-amylase (unknown origin) measured after 30 mins by TAMRA-N3 based In-gel fluorescence scanning analysis; settings: dose 5-50 µM
A549 = assay: cells; format: functional, cell-based; settings: Homo sapiens, A549, 72 h
Description: Growth inhibition of human A549 cells expressing EGFR incubated for 72 hrs by CCK8 assay

NCI-H3255 [14] = assay: cells; format: functional, cell-based; settings: Homo sapiens, NCI-H3255, 72 h
Description: Growth inhibition of human NCI-H3255 cells harbouring EGFR L858R mutant incubated for 72 hrs by CCK8 assay

[15] = target: Epidermal growth factor receptor (Homo sapiens) (UniProt P00533); assay: Inhibition of EGFR in human NCI-H3255 cells assessed as decrease in ERK phosphorylation level at 0.22 to 20 uM; format: cell-based; settings: dose 0.22-20 µM
[16] = tested on: Epidermal growth factor receptor (Homo sapiens), P00533 [L858R]; assay: Binding affinity to EGFR L858R mutant in human NCI-H3255 cells at 10 uM incubated for 8 hrs by pull-down/Western blot analysis; format: cell-based
NCI-H3255 [17] = assay: Inhibition of colony formation in human NCI-H3255 cells at 10 uM by Giemsa staining based assay; format: functional
[18] = tested on: Epidermal growth factor receptor (Homo sapiens), P00533 [L858R]; assay: Binding affinity to EGFR L858R mutant in human NCI-H3255 cells assessed as increase in thermal stability at 0.5 uM incubated for 3 hrs by cellular thermal shift assay; format: cell-based
[19] = target: ATP-dependent translocase ABCB1 (Homo sapiens, UniProt P08183); assay: Binding affinity to MDR1 in human HepG2 cells at 10 uM incubated for 8 hrs by pull-down/LC-MS/MS analysis; format: cell-based; settings: hepg2, 8 h
Sequence of ATP-dependent translocase ABCB1 (P08183 whole entry): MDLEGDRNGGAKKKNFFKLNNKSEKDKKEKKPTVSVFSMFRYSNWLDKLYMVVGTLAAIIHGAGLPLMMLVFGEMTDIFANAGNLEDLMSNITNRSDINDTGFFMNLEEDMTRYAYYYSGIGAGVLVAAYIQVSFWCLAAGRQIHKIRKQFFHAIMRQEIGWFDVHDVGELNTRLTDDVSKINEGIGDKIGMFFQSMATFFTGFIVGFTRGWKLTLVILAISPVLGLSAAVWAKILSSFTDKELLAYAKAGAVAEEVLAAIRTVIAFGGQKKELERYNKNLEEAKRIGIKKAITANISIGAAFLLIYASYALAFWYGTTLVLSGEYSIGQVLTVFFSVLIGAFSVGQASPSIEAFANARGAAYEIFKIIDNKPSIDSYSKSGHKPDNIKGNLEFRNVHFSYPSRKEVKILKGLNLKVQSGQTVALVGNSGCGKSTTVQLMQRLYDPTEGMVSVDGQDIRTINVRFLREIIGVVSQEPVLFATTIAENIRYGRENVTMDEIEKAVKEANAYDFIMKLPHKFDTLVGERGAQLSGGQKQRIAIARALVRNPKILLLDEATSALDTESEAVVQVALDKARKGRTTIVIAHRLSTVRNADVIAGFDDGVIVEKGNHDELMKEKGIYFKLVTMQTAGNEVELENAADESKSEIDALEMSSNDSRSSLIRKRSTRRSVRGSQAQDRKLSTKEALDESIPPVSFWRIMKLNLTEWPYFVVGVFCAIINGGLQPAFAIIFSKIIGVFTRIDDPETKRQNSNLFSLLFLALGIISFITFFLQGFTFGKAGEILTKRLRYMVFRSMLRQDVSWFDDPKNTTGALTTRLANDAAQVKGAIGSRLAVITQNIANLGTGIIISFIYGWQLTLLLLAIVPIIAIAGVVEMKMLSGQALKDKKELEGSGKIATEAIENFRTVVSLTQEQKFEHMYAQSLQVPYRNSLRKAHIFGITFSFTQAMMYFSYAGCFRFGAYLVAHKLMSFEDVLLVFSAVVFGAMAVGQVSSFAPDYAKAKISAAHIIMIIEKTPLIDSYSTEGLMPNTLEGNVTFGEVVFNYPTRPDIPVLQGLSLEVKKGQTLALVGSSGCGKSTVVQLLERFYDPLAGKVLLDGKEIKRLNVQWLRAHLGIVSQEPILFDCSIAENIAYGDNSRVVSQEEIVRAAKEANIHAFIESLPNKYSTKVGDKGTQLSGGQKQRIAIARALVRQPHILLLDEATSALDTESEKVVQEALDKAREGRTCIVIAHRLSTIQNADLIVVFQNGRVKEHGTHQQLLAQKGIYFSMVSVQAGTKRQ

[20] = target: Epidermal growth factor receptor (Homo sapiens) (UniProt P00533); assay: Inhibition of EGFR phosphorylation in human NCI-H3255 cells at 0.22 to 20 uM; format: cell-based; settings: dose 0.22-20 µM
NCI-H3255 [21] = assay: Inhibition of colony formation in human NCI-H3255 cells at 1.1 uM by Giemsa staining based assay; format: functional, cell-based
[22] = target: Leucine-rich PPR motif-containing protein, mitochondrial (Homo sapiens) (UniProt P42704); assay: Binding affinity to LPPRC in human HepG2 cells at 10 uM incubated for 8 hrs by pull-down/LC-MS/MS analysis; format: cell-based
[23] = tested on: Epidermal growth factor receptor (Homo sapiens), P04626+P00533+Q15303+P21860 [L858R]; assay: Binding affinity to EGFR L858R mutant in mouse BaF3 cells at 10 uM incubated for 8 hrs by pull-down/Western blot analysis; format: cell-based
[24] = Growth inhibition of mouse Ba/F3 EGFR cells incubated for 72 hrs by CCK8 assay; format: functional, cell-based
[25] = target: Glutathione S-transferase 3, mitochondrial (Homo sapiens) (UniProt O14880); assay: Binding affinity to MGST3 in human HepG2 cells at 10 uM incubated for 8 hrs by pull-down/LC-MS/MS analysis; format: cell-based
Sequence of Glutathione S-transferase 3, mitochondrial (Homo sapiens) (O14880 whole entry): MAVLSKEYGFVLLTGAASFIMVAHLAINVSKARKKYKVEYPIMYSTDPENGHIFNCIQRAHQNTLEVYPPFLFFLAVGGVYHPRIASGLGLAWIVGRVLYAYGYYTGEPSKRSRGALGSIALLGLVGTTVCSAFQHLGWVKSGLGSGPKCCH

[26] = target: Epidermal growth factor receptor (Homo sapiens, UniProt P00533, L858R); assay: Inhibition of EGFR L858R mutant (unknown origin) using peptide substrate by FRET assay
[27] = target: Ubiquitin-like modifier-activating enzyme 1 (Homo sapiens) (UniProt P22314); assay: Binding affinity to UBA1 in human HepG2 cells at 10 uM incubated for 8 hrs by pull-down/LC-MS/MS analysis; format: cell-based
[28] = target: Epidermal growth factor receptor (Homo sapiens) (UniProt P00533); assay: Inhibition of EGFR in human NCI-H3255 cells assessed as decrease in AKT phosphorylation level at 0.22 to 20 uM; format: cell-based; settings: dose 0.22-20 µM
BaF3 = assay: Growth inhibition of mouse BaF3 cells harbouring EGFR L858R mutant incubated for 72 hrs by CCK8 assay; format: functional, cell-based; settings: BaF3, 72 h

- Activity [1]: Active
- Activity [2]: Active
- Activity (Albumin [3]): Active
- Activity [4]: Active
- Activity (Catalase (Homo sapiens)): Active
- Activity [5]: Active
- Activity (Albumin [6]): Active
- Activity [7]: Active
- Activity (Albumin [8]): Active
- Stability [9]: Stable
- Activity [11]: Active
- Activity [13]: Active
- Activity (Homo sapiens): Active
SMILES: C#Cc1ccc(S(=O)(=O)N(C)C#C)cc1
- inhibition (HepG2 [10]): Active
- Activity (HepG2 [12]): Active

- IC50 (A549): > 50 µM
- IC50 (NCI-H3255 [14]): 7.8 µM
SMILES: C#Cc1cccc(Oc2ncnc3ccc(OCc4ccc(S(=O)(=O)NC)cc4)cc23)c1

- IC50 (A549): 7.61 µM
- inhibition [15]: Active
- Activity [16]: Active
- Activity [18]: Active
- Activity [19]: Active
- inhibition [20]: Active
- Activity [22]: Active
- IC50 (NCI-H3255 [14]): 1.89 µM
- Activity [23]: Active
- Activity (Albumin [8]): Active
- Activity [25]: Active
- IC50 [26]: 5.67 µM
- Activity [27]: Active
- inhibition [28]: Active
- IC50 (BaF3): 1.71 µM
SMILES: C#Cc1cccc(Oc2ncnc3ccc(OCc4ccc(S(=O)(=O)N(C)C#C)cc4)cc23)c1
- inhibition at 10 µM (NCI-H3255 [17]): 100%
- inhibition (NCI-H3255 [21]): Active
- IC50 [24]: 6.48 µM

- Activity (Albumin [8]): Active
SMILES: C#Cc1ccc(OCc2ccc(S(=O)(=O)N(C)C#C)cc2)cc1
